Laboratory results reported in ChEMBL document CHEMBL1155507, “Synthesis, SAR and evaluation of [1,4']-bipiperidinyl-4-yl-imidazolidin-2-one derivatives as novel CCR5 antagonists” (Bioorg Med Chem Lett, 2010).

Legend:
[1] = Permeability from apical to basolateral side of human Caco-2 cells after 21 days; type: ADME, cell-based; conditions: read-out: permeability
[2] = Intrinsic clearance in human liver microsomes per mg of protein; type: ADME, Microsome
[3] = molecular target: C-C chemokine receptor type 5 (Homo sapiens, UniProt P51681); experiment: Binding affinity at CCR5 receptor by radiolabeled RANTES binding assay
[4] = test system: Human immunodeficiency virus 1; experiment: Antiviral activity against HIV1 NL4-3 infected in human JC53-BL cells assessed as luciferase activity after 3 days post infection; type: functional, organism-based; conditions: Human immunodeficiency virus 1, NL4-3, JC53BL, 72 h
[5] = test system: Caco-2; experiment: Efflux ratio of permeability from basolateral to apical over apical to basolateral side in human Caco-2 cells after 21 days; type: ADME, cell-based; conditions: caco-2, 504 h
[6] = Intrinsic clearance in cynomolgus monkey liver microsomes; type: ADME, Macaca fascicularis, Microsome
[7] = molecular target: hERG (KCNH2) (Homo sapiens, UniProt Q12809); experiment: Inhibition of human ERG by patch clamp technique
[8] = AUC in cynomolgus monkey at 1 mg/kg, po; type: ADME, organism-based, Macaca fascicularis; set-up: dose 1 mg/kg, route oral; conditions: plasma
[9] = Half life in cynomolgus monkey at 1 mg/kg, iv; type: ADME, organism-based, Macaca fascicularis; set-up: dose 1 mg/kg, route intravenous; conditions: in vivo
[10] = Clearance in cynomolgus monkey at 1 mg/kg, iv; type: ADME, organism-based, Macaca fascicularis; set-up: dose 1 mg/kg, route intravenous; conditions: in vivo
[11] = Oral bioavailability in cynomolgus monkey at 1 mg/kg; type: ADME, organism-based, Macaca fascicularis; conditions: in vivo
[12] = Cmax in cynomolgus monkey at 1 mg/kg, po; type: ADME, organism-based, Macaca fascicularis; set-up: dose 1 mg/kg, route oral; conditions: in vivo
[13] = test system: Liver microsomes; experiment: Intrinsic clearance in rat liver microsomes; type: ADME, Microsome
[14] = test system: Rattus norvegicus; experiment: (§1) Oral bioavailability in rat at 1 mg/kg; type: ADME, organism-based; conditions: in vivo
[15] = Cmax in rat at 1 mg/kg, po; type: ADME, organism-based; set-up: dose 1 mg/kg, route oral; conditions: in vivo
[16] = test system: Rattus norvegicus; experiment: (§2) AUC in rat at 1 mg/kg, po; type: ADME, organism-based, Plasma; set-up: dose 1 mg/kg, route oral; conditions: in vivo
[17] = Half life in rat at 1 mg/kg, iv; type: ADME, organism-based; set-up: dose 1 mg/kg, route intravenous; conditions: in vivo
[18] = as §1; type: ADME, organism-based; conditions: in vivo
[19] = Clearance in rat at 1 mg/kg, iv; type: ADME, organism-based; set-up: dose 1 mg/kg, route intravenous; conditions: in vivo
[20] = as §2; type: ADME, organism-based, Plasma; set-up: dose 1 mg/kg, route oral; conditions: plasma

C-C chemokine receptor type 5, sequence (P51681 whole entry): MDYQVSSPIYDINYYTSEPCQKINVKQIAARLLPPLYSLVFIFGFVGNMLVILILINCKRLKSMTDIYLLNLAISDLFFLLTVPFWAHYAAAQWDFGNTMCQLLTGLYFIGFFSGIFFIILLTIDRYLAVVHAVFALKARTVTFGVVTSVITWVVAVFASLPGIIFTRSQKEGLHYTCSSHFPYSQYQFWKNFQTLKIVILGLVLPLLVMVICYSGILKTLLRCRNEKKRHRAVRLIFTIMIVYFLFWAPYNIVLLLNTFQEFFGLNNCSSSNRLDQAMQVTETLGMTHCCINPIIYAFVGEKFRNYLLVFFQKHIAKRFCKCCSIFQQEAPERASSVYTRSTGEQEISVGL
hERG (KCNH2), sequence (Q12809 whole entry): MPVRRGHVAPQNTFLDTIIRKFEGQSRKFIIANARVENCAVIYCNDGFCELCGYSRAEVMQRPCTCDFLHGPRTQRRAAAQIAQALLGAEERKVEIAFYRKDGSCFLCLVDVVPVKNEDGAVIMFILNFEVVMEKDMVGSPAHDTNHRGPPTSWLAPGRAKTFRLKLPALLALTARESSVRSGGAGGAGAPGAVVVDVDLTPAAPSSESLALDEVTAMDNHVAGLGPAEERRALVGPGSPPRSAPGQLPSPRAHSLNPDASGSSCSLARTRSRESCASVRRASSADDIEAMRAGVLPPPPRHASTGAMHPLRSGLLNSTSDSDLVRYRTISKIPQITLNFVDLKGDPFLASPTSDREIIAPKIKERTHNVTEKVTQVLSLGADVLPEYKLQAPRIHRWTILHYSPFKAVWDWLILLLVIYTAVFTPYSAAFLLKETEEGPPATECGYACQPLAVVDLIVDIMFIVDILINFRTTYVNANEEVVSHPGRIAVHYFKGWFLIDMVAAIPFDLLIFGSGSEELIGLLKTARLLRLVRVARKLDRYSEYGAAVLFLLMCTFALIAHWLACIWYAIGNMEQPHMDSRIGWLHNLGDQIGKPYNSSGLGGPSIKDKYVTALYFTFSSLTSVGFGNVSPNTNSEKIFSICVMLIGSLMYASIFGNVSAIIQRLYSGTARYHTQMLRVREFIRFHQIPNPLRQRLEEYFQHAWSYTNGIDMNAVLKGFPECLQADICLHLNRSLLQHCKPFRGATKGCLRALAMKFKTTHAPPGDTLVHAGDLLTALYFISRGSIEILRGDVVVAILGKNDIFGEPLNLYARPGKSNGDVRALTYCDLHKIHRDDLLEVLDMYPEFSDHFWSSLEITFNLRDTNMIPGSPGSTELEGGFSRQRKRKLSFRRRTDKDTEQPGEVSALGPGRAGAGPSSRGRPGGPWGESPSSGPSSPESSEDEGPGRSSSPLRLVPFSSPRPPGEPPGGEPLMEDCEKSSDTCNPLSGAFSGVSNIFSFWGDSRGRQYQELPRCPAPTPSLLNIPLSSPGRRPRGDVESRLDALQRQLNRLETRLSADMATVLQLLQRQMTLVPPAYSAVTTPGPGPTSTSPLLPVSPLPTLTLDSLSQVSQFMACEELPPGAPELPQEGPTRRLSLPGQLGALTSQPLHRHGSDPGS

Structure (SMILES)	Papp A→B [1]	microsomal CLint [2]	IC50 [3]	IC50 [4]	Ratio [5]	also measured
CCCCC1CN(CC2CCOCC2)C(=O)N1C1CCN(C2(C)CCN(C(=O)c3c(C)ncnc3C)CC2)CC1 (racemic)	0.4 ×10⁻⁶ cm/s	36 µL/min/mg	43 nM	335 nM	40	–
COC(=O)N1CCC(CN2C[C@@H](c3ccccc3)N(C3CCN(C4(C)CCN(C(=O)c5c(C)ncnc5C)CC4)CC3)C2=O)CC1	0.3 ×10⁻⁶ cm/s	155 µL/min/mg	–	26 nM	56	–
CNC(=O)N1CCC(CN2C[C@@H](c3ccccc3)N(C3CCN(C4(C)CCN(C(=O)c5c(C)ncnc5C)CC4)CC3)C2=O)CC1	0.1 ×10⁻⁶ cm/s	13 µL/min/mg	32 nM	99 nM	13	–
Cc1cc(C#N)nc(C)c1C(=O)N1CCC(C)(N2CCC(N3C(=O)N(C4CCOCC4)CC3c3ccccc3)CC2)CC1 (racemic)	–	–	–	–	–	microsomal CLint [6]: 33 µL/min/mg; IC20 [7]: 3500 nM; AUC [8]: 418 ng·h/mL; half-life [9]: 1.9 h; clearance [10]: 17 mL/min/kg; bioavailability [11]: 42%; Cmax [12]: 133 ng/mL
Cc1cc(C#N)nc(C)c1C(=O)N1CCC(C)(N2CCC(N3C(=O)N(CC4CCOCC4)C[C@@H]3c3ccccn3)CC2)CC1	0.1 ×10⁻⁶ cm/s	18 µL/min/mg	12 nM	22 nM	77	CL [13]: 87 µL/min; bioavailability [18]: 19%; clearance [19]: 29 mL/min/kg; Cmax [15]: 38 ng/mL; AUC [20]: 187 ng·h/mL; half-life [17]: 1 h
Cc1ncnc(C)c1C(=O)N1CCC(C)(N2CCC(N3C(=O)N(CC4CCOCC4)C[C@H]3c3ccccc3)CC2)CC1	0.5 ×10⁻⁶ cm/s	16 µL/min/mg	20 nM	32 nM	29	microsomal CLint [6]: 65 µL/min/mg; AUC [8]: 55 ng·h/mL; half-life [9]: 1.9 h; clearance [10]: 39 mL/min/kg; bioavailability [11]: 14%; Cmax [12]: 16 ng/mL
Cc1ncnc(C)c1C(=O)N1CCC(C)(N2CCC(N3C(=O)N(CC4CCOCC4)CC3c3ccccc3)CC2)CC1 (racemic)	0.4 ×10⁻⁶ cm/s	31 µL/min/mg	27 nM	47 nM	33	CL [13]: 14 µL/min; IC20 [7]: 22000 nM; bioavailability [18]: 27%; clearance [19]: 44 mL/min/kg; Cmax [15]: 56 ng/mL; AUC [20]: 189 ng·h/mL; half-life [17]: 1.5 h
Cc1ncnc(C)c1C(=O)N1CCC(C)(N2CCC(N3C(=O)N(CCC4CCOCC4)C[C@H]3c3ccccc3)CC2)CC1	0.8 ×10⁻⁶ cm/s	96 µL/min/mg	8 nM	25 nM	24	–
CCCCC1CN(C2CCOCC2)C(=O)N1C1CCN(C2(C)CCN(C(=O)c3c(C)ncnc3C)CC2)CC1 (racemic)	0.4 ×10⁻⁶ cm/s	9 µL/min/mg	84 nM	> 625 nM	52	–
Cc1cc(C#N)nc(C)c1C(=O)N1CCC(C)(N2CCC(N3C(=O)N(C)C[C@H]3c3ccccc3)CC2)CC1	0.6 ×10⁻⁶ cm/s	44 µL/min/mg	24 nM	22 nM	25	–
CCO[C@H]1CC[C@H](CN2C[C@H](c3ccccn3)N(C3CCN(C4(C)CCN(C(=O)c5c(C)cc(C#N)nc5C)CC4)CC3)C2=O)CC1	0.5 ×10⁻⁶ cm/s	40 µL/min/mg	25 nM	9 nM	30	–
CNC(=O)N1CCC(CN2C[C@@H](c3ccccc3)N(C3CCN(C4(C)CCN(C(=O)c5c(C)cc(C#N)nc5C)CC4)CC3)C2=O)CC1	0.7 ×10⁻⁶ cm/s	53 µL/min/mg	26 nM	25 nM	10	–
Cc1ncnc(C)c1C(=O)N1CCC(C)(N2CCC(N3C(=O)N(C4CCOCC4)C[C@H]3c3ccccc3)CC2)CC1	0.6 ×10⁻⁶ cm/s	8 µL/min/mg	–	> 625 nM	28	–
Cc1ncnc(C)c1C(=O)N1CCC(C)(N2CCC(N3C(=O)N(CC4CCOCC4)C[C@@H]3c3ccccc3)CC2)CC1	–	–	> 500 nM	> 650 nM	–	–
CCCCC1CN(C2CCOCC2)C(=O)N1C1CCN(C2(C)CCN(C(=O)c3c(C)cc(C#N)nc3C)CC2)CC1 (racemic)	1 ×10⁻⁶ cm/s	20 µL/min/mg	65 nM	41 nM	14	–

The next lines start with results.

Papp A→B [1]	microsomal CLint [2]	IC50 [3]	IC50 [4]	Ratio [5]	Structure (SMILES)	also measured
1 ×10⁻⁶ cm/s	15 µL/min/mg	21 nM	7 nM	12	Cc1cc(C#N)nc(C)c1C(=O)N1CCC(C)(N2CCC(N3C(=O)N(C4CCOCC4)C[C@H]3c3ccccc3)CC2)CC1	CL [13]: 55 µL/min; F [14]: 23%; Cmax [15]: 43 ng/mL; AUC [16]: 85 ng·h/mL; half-life [17]: 5.7 h
0.2 ×10⁻⁶ cm/s	224 µL/min/mg	34 nM	7 nM	38	Cc1ncnc(C)c1C(=O)N1CCC(C)(N2CCC(N3C(=O)N(CC4CCN(S(C)(=O)=O)CC4)C[C@H]3c3ccccc3)CC2)CC1	–
0.4 ×10⁻⁶ cm/s	34 µL/min/mg	33 nM	3 nM	47	Cc1cc(C#N)nc(C)c1C(=O)N1CCC(C)(N2CCC(N3C(=O)N(C[C@H]4CC[C@H](O)CC4)C[C@H]3c3ccccc3)CC2)CC1	–
3 ×10⁻⁶ cm/s	47 µL/min/mg	6 nM	3 nM	4	CCO[C@H]1CC[C@H](CN2C[C@@H](c3ccccc3)N(C3CCN(C4(C)CCN(C(=O)c5c(C)ncnc5C)CC4)CC3)C2=O)CC1	CL [13]: 89 µL/min; bioavailability [18]: 10%; clearance [19]: 65 mL/min/kg; Cmax [15]: 21 ng/mL; AUC [20]: 49 ng·h/mL; half-life [17]: 0.8 h
1.4 ×10⁻⁶ cm/s	69 µL/min/mg	62 nM	8 nM	13	CO[C@H]1CC[C@H](CN2C[C@@H](c3ccccc3)N(C3CCN(C4(C)CCN(C(=O)c5c(C)ncnc5C)CC4)CC3)C2=O)CC1	–
1 ×10⁻⁶ cm/s	57 µL/min/mg	12 nM	2 nM	20	Cc1cc(C#N)nc(C)c1C(=O)N1CCC(C)(N2CCC(N3C(=O)N(CC4CCOCC4)C[C@H]3c3ccccc3)CC2)CC1	–
0.2 ×10⁻⁶ cm/s	12 µL/min/mg	20 nM	8 nM	61	Cc1ncnc(C)c1C(=O)N1CCC(C)(N2CCC(N3C(=O)N(C[C@H]4CC[C@H](O)CC4)C[C@H]3c3ccccc3)CC2)CC1	–
